62 compounds from a flash point compilation (Sun et al. 2020) can be followed below.

The compound `CCC(O)OCCCOC` (configuration not stated) [1-(3-methoxypropoxy)propan-1-ol] showed a flash point of 74.00 °C.
On to `Cc1ccccc1CBr` [1-(bromomethyl)-2-methylbenzene], for which the flash point came out at 82.00 °C.
Consider `Cc1cccc(CBr)c1` [1-(bromomethyl)-3-methylbenzene], for which the flash point is 82.00 °C.
With `C=CCSSCCC` [1-(prop-2-enyldisulfanyl)propane] the figure was 56.00 °C; with `CCCSSCCC` [1-(propyldisulfanyl)propane], 66.00 °C.
With `CC(CCN(C)C)N(C)C` (configuration not stated) [1-N,1-N,3-N,3-N-tetramethylbutane-1,3-diamine] the figure was 46.00 °C; with `CCC(C)Nc1ccc(NC(C)CC)cc1` (configuration not stated) [1-N,4-N-di(butan-2-yl)benzene-1,4-diamine], 141.00 °C.
For `c1ccc(Nc2ccc(Nc3ccccc3)cc2)cc1` [1-N,4-N-diphenylbenzene-1,4-diamine], the flash point was determined as 204.00 °C.
The compound `CC(C)Nc1ccc(Nc2ccccc2)cc1` [1-N-phenyl-4-N-propan-2-ylbenzene-1,4-diamine] displayed a flash point of 151.00 °C.
The compound `c1ccc2occc2c1` [1-benzofuran] gave a flash point of 56.00 °C.
The compound `ClCCCBr` [1-bromo-3-chloropropane] returned a flash point of 57.00 °C.
`Cc1cccc(Br)c1` [1-bromo-3-methylbenzene]: the flash point came to 60.00 °C.
With `Fc1ccc(Br)cc1` [1-bromo-4-fluorobenzene] the figure was 60.00 °C; with `CC(Br)c1ccccc1` (configuration not stated) [1-bromoethylbenzene], 96.00 °C; with `CCCCOCC(C)O` (configuration not stated) [1-butoxypropan-2-ol], 63.00 °C.
`FC(F)=C(F)Cl` [1-chloro-1,2,2-trifluoroethene] yielded a flash point of -27.00 °C.
With `CCC(Cl)[N+](=O)[O-]` (configuration not stated) [1-chloro-1-nitropropane] the figure was 62.00 °C; with `O=[N+]([O-])c1ccc(Cl)c([N+](=O)[O-])c1` [1-chloro-2,4-dinitrobenzene], 194.00 °C; with `ClCc1ccccc1Cl` [1-chloro-2-(chloromethyl)benzene], 91.00 °C.
`C=Cc1ccccc1Cl` [1-chloro-2-ethenylbenzene]: the flash point came out at 59.00 °C.
The compound `CCCCCCl` [1-chloropentane] had a flash point of 1.00 °C.
`CC(O)CCl` (configuration not stated) [1-chloropropan-2-ol] returned a flash point of 52.00 °C.
With `C=COCCOC` [1-ethenoxy-2-methoxyethane] the figure was 18.00 °C.
With `C=COCCCC` [1-ethenoxybutane] the figure was -9.00 °C.
Then `C=Cc1cccc(C)c1` [1-ethenyl-3-methylbenzene], with 60.00 °C.
The compound `C=Cc1ccc(C)cc1` [1-ethenyl-4-methylbenzene] came in with a flash point of 52.00 °C.
The compound `CCOCCOCCOCC` [1-ethoxy-2-(2-ethoxyethoxy)ethane] had a flash point of 54.00 °C.
With `CCCCOCC` [1-ethoxybutane] the figure was 4.00 °C; with `CCOCC(C)O` (configuration not stated) [1-ethoxypropan-2-ol], 40.00 °C; with `CCOCC(C)OC(C)=O` (configuration not stated) [1-ethoxypropan-2-yl acetate], 53.00 °C.
In turn, `Cc1ccccc1F` [1-fluoro-2-methylbenzene] displayed a flash point of 13.00 °C.
With `C=C(C)C(=O)OC(C)CO` (configuration not stated) [1-hydroxypropan-2-yl 2-methylprop-2-enoate], the flash point amounted to 121.00 °C.
In turn, `O=[N+]([O-])c1cccc(I)c1` [1-iodo-3-nitrobenzene] displayed a flash point of 72.00 °C.
With `O=C=Nc1ccc(Cc2ccc(N=C=O)cc2)cc1` [1-isocyanato-4-[(4-isocyanatophenyl)methyl]benzene], the flash point turned out to be 218.00 °C.
Regarding `CCCCN=C=O` [1-isocyanatobutane], the flash point worked out at 19.00 °C.
Regarding `COCCOCCOCCOC` [1-methoxy-2-[2-(2-methoxyethoxy)ethoxy]ethane], the flash point is 111.00 °C.
`COCC(C)O` (configuration not stated) [1-methoxypropan-2-ol]: the flash point turned out to be 36.00 °C.
For `CC1(C2CCC3(C)OC3C2)CO1` (configuration not stated) [1-methyl-4-(2-methyloxiran-2-yl)-7-oxabicyclo[4.1.0]heptane], the flash point came to 118.00 °C.
`Cc1ccc([N+](=O)[O-])cc1` [1-methyl-4-nitrobenzene] registered a flash point of 106.00 °C.
`C=C(C)C1CC=C(C)CC1` (configuration not stated) [1-methyl-4-prop-1-en-2-ylcyclohexene] registered a flash point of 46.00 °C.
Turning to `Cc1ccc(C(C)C)cc1` [1-methyl-4-propan-2-ylbenzene], the flash point worked out at 47.00 °C.
With `CC1=CCC(=C(C)C)CC1` [1-methyl-4-propan-2-ylidenecyclohexene] the figure was 64.00 °C; with `CC1(O)CCCCC1` [1-methylcyclohexan-1-ol], 67.00 °C.
Then `CN1CCCC1=O` [1-methylpyrrolidin-2-one], with 96.00 °C; and `O=[N+]([O-])c1ccccc1-c1ccccc1` [1-nitro-2-phenylbenzene], with 143.00 °C.
As to `O=[N+]([O-])c1cccc(C(F)(F)F)c1` [1-nitro-3-(trifluoromethyl)benzene], the flash point is 101.00 °C.
Take `CC[N+](=O)[O-]` [1-nitroethane]: the flash point was 41.00 °C.
Turning to `CC(N)c1ccccc1` (configuration not stated) [1-phenylethanamine], the flash point amounted to 79.00 °C.
In turn, `CC(O)c1ccccc1` (configuration not stated) [1-phenylethanol] displayed a flash point of 85.00 °C.
Regarding `CC(N)Cc1ccccc1` (configuration not stated) [1-phenylpropan-2-amine], the flash point is 27.00 °C.
With `CCCOCCC` [1-propoxypropane] the figure was 21.00 °C; with `Cc1ccc(C(C)(C)C)cc1` [1-tert-butyl-4-methylbenzene], 58.00 °C.
In turn, `c1c[nH]cn1` [1H-imidazole] showed a flash point of 145.00 °C.
Then `c1cc[nH]c1` [1H-pyrrole], with 39.00 °C; and `N#CC(Cl)(Cl)Cl` [2,2,2-trichloroacetonitrile], with 74.00 °C; and `CC(C)C(O)C(C)(C)CO` (configuration not stated) [2,2,4-trimethylpentane-1,3-diol], with 113.00 °C.
The compound `O=CC(Cl)Cl` [2,2-dichloroacetaldehyde] yielded a flash point of 60.00 °C.
For the compound `O=C(Cl)C(Cl)Cl` [2,2-dichloroacetyl chloride], the flash point was determined as 66.00 °C.
With `OCC(Cl)Cl` [2,2-dichloroethanol] the figure was 78.00 °C; with `C=C1C2CCC(C2)C1(C)C` (configuration not stated) [2,2-dimethyl-3-methylidenebicyclo[2.2.1]heptane], 33.00 °C; with `Oc1c(Cl)cc(Cl)c(Cl)c1Cl` [2,3,4,6-tetrachlorophenol], 100.00 °C.
With `CCCCCCCC(=O)OCC(COC(=O)CCCCCCC)OC(=O)CCCCCCC` [2,3-di(octanoyloxy)propyl octanoate] the figure was 177.00 °C.
